We go through 16 molecules from patent US11834454B2, “Alkynylphenylbenzamide compounds and applications thereof” (SHENZHEN NEWDEL BIOTECH CO., LTD., priority 2021, dated 2023).

SMILES strings stand for the structures.

The target in one test is T1, BaF3-ETV6-NTRK2 (Homo sapiens, UniProt Q16620).
T1 construct: fused on or other part: P41212 (Transcription factor ETV6)
Nature of the test: Cell proliferation inhibition, Ba/F3-TRKs stable strain (CCK-8). The class given is cell-based, mouse. Particulars: 72 hours, read-out: cell viability IC50 ETV6-NTRK2. An excerpt: (§1) The BaF3 cells (mouse pre-B cells) used in this experiment were purchased from the Japanese Cell Bank. All of the monoclonal stable strains, BaF3-CD74-NTRK1, BaF3-ETV6-NTRK2 and BaF3-ETV6-NTRK3 were constructed by our laboratory, and were identified by experiments such as positive control, protein expression and gene sequencing.
(§2) The brief steps of stable strain construction were as follows: constructed pCDNA3.1(+) plasmid vector carrying genes such as CD74-NTRK1, ETV6-NTRK2, ETV6-NTRK3; the plasmid was electroporated into Ba/F3 cells using Amaxa® Cell Line Nucleofector® Kit V; 48 hours after electroporation, geneticin (G418) with a final concentration of 1000 μg/mL was added to screen for two weeks, and the interleukin 3 (IL3) was removed to continue screening to obtain polyclonal stable strains; and then single clones were selected by limiting dilution method; the stable strains were then identified by the positive drugs, Western Blot (WB), and gene sequencing; the correct monoclonal through identification can be used to study the cell proliferation inhibitory activity of the inhibitors.
(§3) Cell proliferation inhibitory activity study: The cells in logarithmic growth phase were seeded into 96-well plates at 8000-12000 cells/well, and the inhibitors at different concentrations of (0-10 μM) were added the next day, and the culture was continued for 72 hours; then 10 μL of Cell Counting Kit-8 Cell Counting Reagent (CCK-8 Reagent) was added to each well, and continued to incubate for 1-3 hours; then its absorbance at 450 nm and 650 nm were measured with a super microplate reader. The median inhibitory concentration (IC50) was calculated using medical graphing software (GraphPad Prism 8.0.0).

Another test concerns the target T2, BaF3-CD74-NTRK1 (Homo sapiens, UniProt P04629).
T2 construct: fused on or other part: P04233 (HLA class II histocompatibility antigen gamma chain)
Described as above. The class given is cell-based, mouse. The settings on record: 72 hours, read-out: cell viability IC50 CD74-NTRK1.
Description: as §1, §2, §3

A further test has as its target T3, TRKB (Homo sapiens, UniProt Q16620).
T3 construct: purchased American Life Technologies PV3616
Nature of the test: Z'-LYTE kinase activity detection, TRKB. The class given is biochemical.

Another test deals with T4, TRKA (Homo sapiens, UniProt P04629).
T4 construct: purchased American Life Technologies PV3144
Nature of the test: Z'-LYTE kinase activity detection, TRKA. The class given is biochemical.

The target of the next test is T5, TRKC (Homo sapiens, UniProt Q16288).
T5 construct: purchased American Life Technologies PV3617
Nature of the test: Z'-LYTE kinase activity detection, TRKC. The class given is biochemical.

The target in a further test is T6, BaF3-ETV6-NTRK3 (Homo sapiens, UniProt Q16288).
T6 construct: fused on or other part: P41212 (Transcription factor ETV6)
Nature of the test: Cell proliferation inhibition, Ba/F3-TRKs stable strain (CCK-8). The class given is cell-based, mouse. The settings on record: 72 hours, read-out: cell viability IC50 ETV6-NTRK3.
Description: as §1, §2, §3

T6 sequence (Q16288 whole entry, the tested form may be a part): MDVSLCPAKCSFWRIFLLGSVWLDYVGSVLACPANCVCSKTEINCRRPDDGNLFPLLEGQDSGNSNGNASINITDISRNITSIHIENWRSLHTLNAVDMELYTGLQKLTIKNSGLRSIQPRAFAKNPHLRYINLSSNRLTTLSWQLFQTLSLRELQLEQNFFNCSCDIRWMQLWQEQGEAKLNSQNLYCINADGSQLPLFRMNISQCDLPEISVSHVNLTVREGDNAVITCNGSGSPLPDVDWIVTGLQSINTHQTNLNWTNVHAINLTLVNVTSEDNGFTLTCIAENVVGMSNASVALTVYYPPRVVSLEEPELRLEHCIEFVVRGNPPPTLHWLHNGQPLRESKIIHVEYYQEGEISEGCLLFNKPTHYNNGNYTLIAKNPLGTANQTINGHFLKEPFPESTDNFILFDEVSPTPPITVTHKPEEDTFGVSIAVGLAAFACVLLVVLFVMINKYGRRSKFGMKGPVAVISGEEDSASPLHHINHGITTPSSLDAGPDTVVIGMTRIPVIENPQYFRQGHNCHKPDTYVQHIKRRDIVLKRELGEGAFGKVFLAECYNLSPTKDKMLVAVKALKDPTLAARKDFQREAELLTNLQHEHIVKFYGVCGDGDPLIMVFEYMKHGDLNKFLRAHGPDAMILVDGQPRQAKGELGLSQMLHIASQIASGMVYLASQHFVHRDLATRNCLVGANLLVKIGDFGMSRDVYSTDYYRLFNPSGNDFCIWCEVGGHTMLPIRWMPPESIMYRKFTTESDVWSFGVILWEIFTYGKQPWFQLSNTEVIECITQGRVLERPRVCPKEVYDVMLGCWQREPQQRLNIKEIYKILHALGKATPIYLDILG
T5 sequence (Q16288 32-839): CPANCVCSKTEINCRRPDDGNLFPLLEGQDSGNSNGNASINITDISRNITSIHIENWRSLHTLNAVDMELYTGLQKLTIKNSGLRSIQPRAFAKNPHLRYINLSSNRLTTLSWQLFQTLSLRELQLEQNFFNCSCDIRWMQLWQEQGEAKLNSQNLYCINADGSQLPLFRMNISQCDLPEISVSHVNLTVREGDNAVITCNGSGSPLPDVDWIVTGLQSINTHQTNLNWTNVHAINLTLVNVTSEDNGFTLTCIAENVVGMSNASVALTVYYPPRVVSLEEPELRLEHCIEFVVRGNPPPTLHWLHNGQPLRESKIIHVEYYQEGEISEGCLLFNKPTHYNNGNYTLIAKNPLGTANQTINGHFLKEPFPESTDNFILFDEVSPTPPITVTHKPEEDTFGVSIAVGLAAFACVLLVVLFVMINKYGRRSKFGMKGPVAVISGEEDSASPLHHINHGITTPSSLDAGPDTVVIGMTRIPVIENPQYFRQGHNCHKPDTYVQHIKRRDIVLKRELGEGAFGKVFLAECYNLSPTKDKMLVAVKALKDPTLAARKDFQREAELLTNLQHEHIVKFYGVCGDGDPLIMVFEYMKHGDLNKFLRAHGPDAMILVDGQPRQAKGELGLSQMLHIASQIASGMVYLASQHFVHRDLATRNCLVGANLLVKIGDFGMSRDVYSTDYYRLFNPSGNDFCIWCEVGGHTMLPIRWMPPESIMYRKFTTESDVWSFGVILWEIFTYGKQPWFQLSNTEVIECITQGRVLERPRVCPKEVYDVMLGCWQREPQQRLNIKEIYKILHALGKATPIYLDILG
T3 sequence (Q16620 32-822): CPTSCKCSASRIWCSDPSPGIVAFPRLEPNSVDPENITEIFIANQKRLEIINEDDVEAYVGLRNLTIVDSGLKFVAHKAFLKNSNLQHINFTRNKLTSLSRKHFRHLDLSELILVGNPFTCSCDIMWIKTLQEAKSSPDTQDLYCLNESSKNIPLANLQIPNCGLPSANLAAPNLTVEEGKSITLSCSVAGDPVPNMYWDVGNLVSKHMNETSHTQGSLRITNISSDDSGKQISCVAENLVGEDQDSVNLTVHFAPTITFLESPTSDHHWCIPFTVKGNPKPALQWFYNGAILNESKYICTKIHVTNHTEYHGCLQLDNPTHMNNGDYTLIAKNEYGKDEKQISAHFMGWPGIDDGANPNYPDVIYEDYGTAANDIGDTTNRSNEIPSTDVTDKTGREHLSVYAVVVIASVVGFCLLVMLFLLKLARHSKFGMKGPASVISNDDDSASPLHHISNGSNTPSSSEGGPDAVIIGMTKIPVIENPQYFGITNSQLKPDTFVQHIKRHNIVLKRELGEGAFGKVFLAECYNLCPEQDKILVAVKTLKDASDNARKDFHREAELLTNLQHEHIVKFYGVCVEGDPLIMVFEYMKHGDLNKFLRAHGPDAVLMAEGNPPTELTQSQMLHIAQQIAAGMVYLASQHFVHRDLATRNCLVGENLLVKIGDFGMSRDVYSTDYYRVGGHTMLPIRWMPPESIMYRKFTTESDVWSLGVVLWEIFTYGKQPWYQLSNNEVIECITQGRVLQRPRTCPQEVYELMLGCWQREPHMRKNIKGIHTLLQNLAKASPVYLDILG
T4 sequence (P04629 33-796): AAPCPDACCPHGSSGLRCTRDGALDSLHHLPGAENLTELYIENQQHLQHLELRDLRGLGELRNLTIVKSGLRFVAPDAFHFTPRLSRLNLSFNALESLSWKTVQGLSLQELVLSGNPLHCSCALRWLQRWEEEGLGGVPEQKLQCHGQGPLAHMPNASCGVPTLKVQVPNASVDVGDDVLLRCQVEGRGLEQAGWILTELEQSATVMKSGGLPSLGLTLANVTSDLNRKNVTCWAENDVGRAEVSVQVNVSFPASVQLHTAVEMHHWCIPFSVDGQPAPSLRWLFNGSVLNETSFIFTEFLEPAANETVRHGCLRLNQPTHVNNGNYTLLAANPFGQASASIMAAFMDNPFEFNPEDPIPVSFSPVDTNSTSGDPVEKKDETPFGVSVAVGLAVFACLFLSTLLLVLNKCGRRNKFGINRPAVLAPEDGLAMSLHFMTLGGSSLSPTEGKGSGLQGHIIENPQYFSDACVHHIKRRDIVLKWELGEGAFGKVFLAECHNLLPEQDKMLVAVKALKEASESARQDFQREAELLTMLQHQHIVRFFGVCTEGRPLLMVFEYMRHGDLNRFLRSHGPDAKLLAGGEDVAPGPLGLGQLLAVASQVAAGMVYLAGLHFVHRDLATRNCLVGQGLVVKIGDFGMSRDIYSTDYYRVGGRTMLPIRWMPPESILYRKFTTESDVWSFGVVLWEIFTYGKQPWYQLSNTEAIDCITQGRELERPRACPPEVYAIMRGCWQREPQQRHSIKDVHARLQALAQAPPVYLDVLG
T2 sequence (P04629 510-796 limits assumed): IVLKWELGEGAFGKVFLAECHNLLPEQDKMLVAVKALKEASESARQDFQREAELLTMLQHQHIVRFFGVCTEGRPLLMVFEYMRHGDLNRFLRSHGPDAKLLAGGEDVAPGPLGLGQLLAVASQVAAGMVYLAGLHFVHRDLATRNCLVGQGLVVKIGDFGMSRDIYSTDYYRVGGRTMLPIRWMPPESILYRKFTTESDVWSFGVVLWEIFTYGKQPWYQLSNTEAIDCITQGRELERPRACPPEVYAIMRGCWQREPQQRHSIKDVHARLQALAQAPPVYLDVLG
T1 sequence (Q16620 538-822 limits assumed): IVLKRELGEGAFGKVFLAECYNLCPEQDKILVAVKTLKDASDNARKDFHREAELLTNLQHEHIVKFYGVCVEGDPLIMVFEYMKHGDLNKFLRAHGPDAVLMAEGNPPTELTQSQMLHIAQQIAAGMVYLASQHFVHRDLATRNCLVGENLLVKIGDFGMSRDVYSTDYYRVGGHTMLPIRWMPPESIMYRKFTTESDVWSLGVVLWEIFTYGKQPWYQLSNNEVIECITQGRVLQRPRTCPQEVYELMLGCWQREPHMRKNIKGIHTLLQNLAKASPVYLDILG

In general, IC50 refers to the midpoint of a concentration-inhibition curve. For `Cc1c(C#Cc2cnc3cccnn23)cccc1C(=O)Nc1cccc(C(F)(F)F)c1` [XS2-106], the IC50 at BaF3-ETV6-NTRK2 is 100 to 1000 nM; at BaF3-CD74-NTRK1 it was 100 to 1000 nM; at TRKB it was over 1000 nM; against TRKA, 100 to 1000 nM.
Take `Cc1c(C#Cc2cnc3cccnn23)cccc1C(=O)Nc1cc(F)cc(C(F)(F)F)c1` [XS2-109, N-(3-FLUORO-5-(TRIFLUOROMETHYL)PHENYL)-3-(IMIDAZO[1,2-B]PYRIDAZIN-3-YLETHYNYL)-2-METHYLBENZENE FORMAMIDE]: the values for the IC50 on TRKC, at TRKB and against TRKA were 100 to 1000 nM, over 1000 nM and 100 to 1000 nM, respectively.
In the case of `Cc1c(C#Cc2cnc3cccnn23)cccc1C(=O)Nc1cc(Cl)cc(C(F)(F)F)c1` [XS2-112, N-(3-CHLORO-5-(TRIFLUOROMETHYL)PHENYL)-3-(IMIDAZO[1,2-B]PYRIDAZIN-3-YLETHYNYL)-2-METHYLBENZENE FORMAMIDE], the IC50 against TRKC, at BaF3-ETV6-NTRK3, at BaF3-ETV6-NTRK2, on BaF3-CD74-NTRK1, against TRKB and at TRKA was 100 to 1000 nM each time.
In the case of `Cc1c(C#Cc2cnc3ncccn23)cccc1C(=O)Nc1cc(CN2CCN(C)CC2)cc(C(F)(F)F)c1` [XS2-161], the IC50 is 100 to 1000 nM against TRKC; over 1000 nM on BaF3-ETV6-NTRK3; over 1000 nM on BaF3-ETV6-NTRK2; over 1000 nM on BaF3-CD74-NTRK1; over 1000 nM at TRKB; 100 to 1000 nM against TRKA.
As to `Cc1c(C#Cc2cnc3ccc(N4CCOCC4)nn23)cccc1C(=O)Nc1cccc(C(F)(F)F)c1` [XS3-23, 2-METHYL-3-((6-MORPHOLINIMIDAZO[1,2-B]PYRIDAZIN-3-YL)ETHYNYL)-N-(3-(TRIFLUOROMETHYL)BENZENE BASE) BENZAMIDE], the IC50 against TRKC, at BaF3-ETV6-NTRK3, at BaF3-ETV6-NTRK2, on BaF3-CD74-NTRK1, at TRKB and against TRKA was 10 to 100 nM in each case.
With `Cc1c(C#Cc2cnc3ccc(N4CC[C@H](O)C4)nn23)cccc1C(=O)Nc1cccc(C(F)(F)F)c1` [XS3-35, (S)-3-((6-(3-HYDROXYPYRROLIDIN-1-YL)IMIDAZO[1,2-B]PYRIDAZIN-3-YL)ETHYNYL)-2-METHYL-N-(3-(TRIFLUOROMETHYL)PHENYL)BENZAMIDE], the IC50 is under 10 nM against TRKC; 10 to 100 nM at BaF3-ETV6-NTRK3; 100 to 1000 nM on BaF3-ETV6-NTRK2; 10 to 100 nM at BaF3-CD74-NTRK1; 10 to 100 nM against TRKB; under 10 nM on TRKA.
Turning to `Cc1c(C#Cc2cnc3ccc(N4CC[C@H](O)C4)nn23)cccc1C(=O)Nc1cc(CN2CCN(C)CC2)cc(C(F)(F)F)c1` [XS3-36, (S)-3-((6-(3-HYDROXYPYRROLIDIN-1-YL)IMIDAZO[1,2-B]PYRIDAZIN-3-YL)ETHYNYL)-2-METHYL-N-(3-((4-METHYLPIPERAZIN-1-YL)METHYL)-5-(TRIFLUOROMETHYL)PHENYL)BENZAMIDE], the IC50 was under 10 nM against TRKC; 10 to 100 nM on BaF3-ETV6-NTRK3; 10 to 100 nM on BaF3-ETV6-NTRK2; 10 to 100 nM on BaF3-CD74-NTRK1; 10 to 100 nM on TRKB; 10 to 100 nM on TRKA.
For the molecule `Cc1c(C#Cc2cnc3ccc(N4CCN(C)CC4)nn23)cccc1C(=O)Nc1cc(Cl)cc(C(F)(F)F)c1` [XS3-51, N-(3-CHLORO-5-(TRIFLUOROMETHYL)PHENYL)-2-METHYL-3-((6-(4-METHYLPIPERAZIN-1-YL)IMIDAZO[1,2-B]PYRIDAZIN-3-YL)ETHYNYL)BENZAMIDE], the IC50 on TRKC was under 10 nM; at BaF3-ETV6-NTRK3, 10 to 100 nM; at BaF3-ETV6-NTRK2, 100 to 1000 nM; at BaF3-CD74-NTRK1, 100 to 1000 nM; at TRKB, 10 to 100 nM; on TRKA, 10 to 100 nM.
`Cc1c(C#Cc2cnc3ccc(N4CCN(C)[C@H](C)C4)nn23)cccc1C(=O)Nc1cc(Cl)cc(C(F)(F)F)c1` [XS3-52, (R)—N-(3-CHLORO-5-(TRIFLUOROMETHYL)PHENYL)-3-((6-(3,4-DIMETHYLPIPERAZIN-1-YL)IMIDAZO[1,2-B]PYRIDAZIN-3-YL)ETHYNYL)-2-METHYLBENZAMIDE]: the IC50 against TRKC lay within 10 to 100 nM; on BaF3-ETV6-NTRK3, 10 to 100 nM; at BaF3-ETV6-NTRK2, 100 to 1000 nM; on BaF3-CD74-NTRK1 it was 10 to 100 nM; against TRKB it was 10 to 100 nM; against TRKA, 10 to 100 nM.
Consider `Cc1c(C#Cc2cnc3ccc(NCCN4CCOCC4)nn23)cccc1C(=O)Nc1cc(Cl)cc(C(F)(F)F)c1` [XS3-53, N-(3-CHLORO-5-(TRIFLUOROMETHYL)PHENYL)-2-METHYL-3-((6-((2-MORPHOLINOETHYL)AMINO)IMIDAZO[1,2-B]PYRIDAZIN-3-YL)ETHYNYL)BENZAMIDE], for which the IC50 on TRKC was under 10 nM; on BaF3-ETV6-NTRK3, 10 to 100 nM; on BaF3-ETV6-NTRK2 it was 100 to 1000 nM; at BaF3-CD74-NTRK1 it was 10 to 100 nM; on TRKB, 10 to 100 nM; against TRKA, under 10 nM.
With `CC(=O)N1CCN(c2ccc3ncc(C#Cc4cccc(C(=O)Nc5cc(Cl)cc(C(F)(F)F)c5)c4C)n3n2)CC1` [XS3-54, 3-((6-(4-ACETYLPIPERAZIN-1-YL)IMIDAZO[1,2-B]PYRIDAZIN-3-YL)ETHYNYL)-N-(3-CHLORO-5-(TRIFLUORO) METHYL)PHENYL)-2-METHYLBENZAMIDE], the IC50 against TRKC is under 10 nM; on BaF3-ETV6-NTRK3, 10 to 100 nM; on BaF3-ETV6-NTRK2, 10 to 100 nM; at BaF3-CD74-NTRK1, 10 to 100 nM; against TRKB, 10 to 100 nM; on TRKA it was under 10 nM.
In the case of `Cc1c(C#Cc2cnc3ccc(N4CCC(N(C)C)CC4)nn23)cccc1C(=O)Nc1cc(Cl)cc(C(F)(F)F)c1` [XS3-56, N-(3-CHLORO-5-(TRIFLUOROMETHYL)PHENYL)-3-((6-(4-(DIMETHYLAMINO)PIPERIDIN-1-YL)IMIDAZO[1,2-B]PYRIDAZIN-3-YL)ETHYNYL)-2-METHYLBENZAMIDE], the IC50 at TRKC lay in the range of 10 to 100 nM; at BaF3-ETV6-NTRK3, 10 to 100 nM; on BaF3-ETV6-NTRK2, 100 to 1000 nM; at BaF3-CD74-NTRK1, 100 to 1000 nM; against TRKB, 10 to 100 nM; at TRKA, 10 to 100 nM.
For the molecule `Cc1c(C#Cc2cnc3ccc(N4CCC(N(C)C)CC4)nn23)cccc1C(=O)Nc1cccc(C(F)(F)F)c1` [XS3-57, 3-((6-(4-(DIMETHYLAMINO)PIPERIDIN-1-YL)IMIDAZO[1,2-B]PYRIDAZIN-3-YL)ETHYNYL)-2-METHYL-N-(3-(TRIFLUOROMETHYL)PHENYL)BENZAMIDE], the IC50 against TRKC is under 10 nM; on BaF3-ETV6-NTRK3, 10 to 100 nM; at BaF3-ETV6-NTRK2, 100 to 1000 nM; at BaF3-CD74-NTRK1 it was 10 to 100 nM; on TRKB it was under 10 nM; at TRKA, under 10 nM.
With `Cc1c(C#Cc2cnc3ccc(N4CCOCC4)nn23)cccc1C(=O)Nc1cc(Cl)cc(C(F)(F)F)c1` [XS3-61, N-(3-CHLORO-5-(TRIFLUOROMETHYL)PHENYL)-2-METHYL-3-((6-MORPHOLINIMIDAZO[1,2-B]PYRIDAZINE-3-YL)ETHYNYL)BENZAMIDE], the IC50 against TRKC, on BaF3-ETV6-NTRK3, at BaF3-CD74-NTRK1, against TRKB and at TRKA was 10 to 100 nM each time.
With `Cc1c(C#Cc2cnc3ccc(N4CCOCC4)nn23)cccc1C(=O)Nc1cc(F)cc(C(F)(F)F)c1` [XS4-80], the IC50 on TRKC, at BaF3-ETV6-NTRK3, at BaF3-ETV6-NTRK2, on BaF3-CD74-NTRK1 and at TRKA was 10 to 100 nM each time.
Take `Cc1cc(NC(=O)c2cccc(C#Cc3cnc4ccc(N5CCOCC5)nn34)c2C)cc(C(F)(F)F)c1` [XS4-81]: the IC50 is 10 to 100 nM at TRKC; under 10 nM at BaF3-ETV6-NTRK3; 10 to 100 nM on BaF3-ETV6-NTRK2; 10 to 100 nM at BaF3-CD74-NTRK1; 10 to 100 nM at TRKA.
